Legend:
LnCap cells = test: Rate of uptake and internalization (acid wash assay) of MIP-1072 in LNCaP cells; assay type: cell-based, human; settings: 100 nM; for internalization in LNCaP cells: 4° C. and 37° C.
Experimental: In order to confirm the results of the Scatchard analysis of FIG. 7 indicating MIP-1072 internalization into LNCaP cells, the rate of uptake of MIP-1072 in LNCaP cells was monitored. Each well was dosed with 100 nM MIP-1072 (2 uCi/well) at 4° C. and 37° C. Binding to PSMA reached equilibrium after 15 min as evidenced by the plateau in the curve at 4° C. The cells incubated at 37° C. continued to internalize MIP-1072 after equilibrium had been reached.
The ability of MIP-1072 to internalize in LNCaP cells was confirmed by an acid wash assay (FIG. 19). LNCaP cells were incubated in HBS with 100 nM ^123I-MIP-1072 for 0-2 hours at 4 and 37° C. At the indicated time the media was removed and the cells were incubated in mild acid buffer (50 mM glycine, 150 mM NaCl, pH 3.0) at 4° C. for 5 minutes. After the brief incubation the cells were centrifuged at 20,000×g for 5 minutes. The supernatant and cell pellet were counted in a gamma counter. In order to confirm the results of the saturation binding analysis indicating MIP-1072 internalization into LNCaP cells, we monitored the rate of uptake of MIP-1072 in LNCaP cells. Each well was dosed with 100 nM MIP-1072 (2 uCi/well) at 4° C. and 37° C. Binding to PSMA reached equilibrium after 15 min as evidenced by the plateau in the curve at 4° C. The cells incubated at 37° C. continued to internalize MIP-1072 after equilibrium had been reached. […] (FIG. 19).

[1] = tested on: PSMA positive LNCaP xenografts; assay type: in vivo, male NCr Nude mice
Experimental: Tissue biodistribution of I^23I-MIP-1072 (2 μCi/mouse, >1,000 mCi/μmole) was assessed in selected tissues from LNCaP (PSMA positive) tumor bearing nude mice. Results are expressed as the percent of the injected dose per gram of the selected tissues (% ID/g).
(§1) FIG. 21 Uptake of ^23I-MIP-1072 in LNCaP and PC3 xenograft bearing mice.
(§2) A quantitative analysis of the tissue distribution of ^123I-MIP-1072 was performed in separate groups of male NCr Nude^−/− mice bearing PSMA positive LNCaP xenografts (approximately 100-200 mm^3) administered via the tail vein as a bolus injection (approximately 2 μCi/mouse) in a constant volume of 0.05 ml. The animals (n=5/time point) were euthanized by asphyxiation with carbon dioxide at 0.25, 1, 2, 4, 8, and 24 hours post injection. Tissues (blood, heart, lungs, liver, spleen, kidneys, adrenals, stomach, large and small intestines (with contents), testes, skeletal muscle, bone, brain, adipose, and tumor) were dissected, excised, weighed wet, transferred to plastic tubes and counted in an automated γ-counter (LKB Model 1282, Wallac Oy, Finland). […] MIP-1072, uptake and exposure was greatest in the kidney and LNCaP xenograft which express high levels of PSMA. Peak uptake in the kidney was 158±46% ID/g at 2 hours and the LNCaP xenograft was 17±6% ID/g at 1 hours (FIG. 20).

[2] = tested on: PC3 tumors which do not express PSMA; test: Tumor uptake of 123I-MIP-1072 in PC3 xenograft bearing mice; assay type: in vivo, male NCr Nude mice; settings: 1 hour post injection
Experimental: as §1, §2

PSMA on LNCaP cells [3] = biological target: T1, PSMA on LNCaP cells (Homo sapiens, UniProt Q04609); test: In vitro cell binding: competition with I-131 DCIT for binding to PSMA on LNCaP cells; settings: LnCap cells, dose curves; read-out: IC50 values versus I-131 DCIT
T1 construct: LNCaP human prostate cancer cells were obtained from American Type Culture Collection; host or cells: LNCaP human prostate cancer cells
T1 sequence (Q04609 whole entry): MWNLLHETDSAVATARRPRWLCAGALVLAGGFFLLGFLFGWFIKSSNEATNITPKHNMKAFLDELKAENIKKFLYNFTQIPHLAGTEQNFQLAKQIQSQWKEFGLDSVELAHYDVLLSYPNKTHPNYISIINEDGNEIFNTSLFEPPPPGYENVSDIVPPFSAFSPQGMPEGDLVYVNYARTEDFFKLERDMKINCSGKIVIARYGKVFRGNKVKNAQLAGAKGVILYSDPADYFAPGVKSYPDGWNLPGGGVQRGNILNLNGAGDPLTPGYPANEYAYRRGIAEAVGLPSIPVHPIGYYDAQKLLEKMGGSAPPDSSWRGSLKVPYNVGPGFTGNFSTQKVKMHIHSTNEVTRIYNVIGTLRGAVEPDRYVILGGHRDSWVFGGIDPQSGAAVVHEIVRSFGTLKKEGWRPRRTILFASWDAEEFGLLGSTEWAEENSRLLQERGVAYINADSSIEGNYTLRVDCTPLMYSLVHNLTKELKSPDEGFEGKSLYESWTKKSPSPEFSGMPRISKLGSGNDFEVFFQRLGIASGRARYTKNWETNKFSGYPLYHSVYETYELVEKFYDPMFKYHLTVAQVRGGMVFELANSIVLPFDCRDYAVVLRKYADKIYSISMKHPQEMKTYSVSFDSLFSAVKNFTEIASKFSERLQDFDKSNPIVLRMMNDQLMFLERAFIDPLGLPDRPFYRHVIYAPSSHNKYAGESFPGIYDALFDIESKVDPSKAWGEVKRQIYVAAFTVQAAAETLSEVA
Experimental: In vitro cold screening assays verses I-131 DCIT. LNCaP and PC3 human prostate cancer cells were obtained from American Type Culture Collection, Rockville, MD LNCaP cells were maintained in RPMI-1640 medium supplemented with 10% fetal bovine serum (FBS). PC3 cells were grown in F12K medium supplemented with 10% FBS. Binding of the radiolabeled compound and competition with cold derivatives to LNCaP and PC-3 cells was performed according to the methods of Tang et al. (Tang, H.; Brown, M.; Ye, Y.; Huang, G.; Zhang, Y.; Wang, Y.; Zhai, H.; Chen, X.; Shen, T. Y.; Tenniswood, M., Prostate targeting ligands based on N-acetylated alpha-linked acidic dipeptidase, Biochem. Biophys. Res. Commun. 2003, 307, 8-14) with appropriate modifications. Cells were plated in 12-well plates at approximately 4×10^5 cells/well and incubated for 48 hours in a humidified incubator at 37° C./5% carbon dioxide prior to addition of compound. Each unique SAAC-urea-Glu conjugate was prepared and diluted in serum-free cell culture medium containing 0.5% bovine serum albumin (BSA) in combination with 3 nM I-131 DCIT (known inhibitor). Total binding was determined by incubating I-131 DCIT without test compound. Plates were incubated at room temperature for 1 hour. Cells were removed from the plates by gently pipeting and transferred to eppendorff tubes. Samples were microcentrifuged for 15 seconds at 10K×g. The medium was aspirated and the pellet was washed twice by dispersal in fresh assay medium followed by microcentrifugation. Cell binding of I-131 DCIT was determined by counting the cell pellet in an automated gamma counter. […] The control compounds are depicted below.
The ability of non-radioactive analogs to compete with ^131I-DCIT for binding to PSMA was tested in the PSMA positive human prostate cancer cell line, LNCaP cells. LNCaP cells (300,000 cells/well) were incubated for 1 hour with 3 nM [^131I]-DCIT in the presence of 1-10,000 nM MIP-1072 in RPMI-1640 medium supplemented with 0.5% bovine serum albumin, then washed and counted in a gamma counter. All documents cited in this specification including patent applications are incorporated by reference in their entirety.

PSMA on LNCaP cells [4] = biological target: T1, PSMA on LNCaP cells; test: Saturation binding analysis of radiolabeled MIP-1072 in LNCaP cells
Experimental: The affinity constant (Kd) of MIP-1072 was determined by saturation binding analysis (FIG. 18). LNCaP cells were incubated for 1 hour with 30-100,000 pM ^131I-MIP-1072 in HBS (50 mM Hepes, pH 7.5, 0.9% sodium chloride) at either 4° C. or 37° C. in the absence or presence of 10 μM unlabeled MIP-1072 (to determine non-specific binding). Cells were then washed and the amount of radioactivity was measured on a gamma counter. Specific binding was calculated as the difference between total binding and nonspecific binding. […] The Bmax, however, was greater at 37° C. than at 4° C.; […] fmol/10^6 cells, respectively, indicating internalization of MIP-1072. The results below are representative of two independent analyses.

[5] = Microsome assay (stability in rat liver microsomes); assay type: in vitro ADME; settings: 37° C., 60 min incubation; MIP-1072 50 μM, phenacetin 100 μM
Experimental: Pooled male rat liver microsomes (1 mg/mL, BD Biosciences), NADPH regenerating system (1.3 mM NADP, 3.3 mM glucose 6-phosphate and 0.4 U/mL glucose 6-phosphate dehydrogenase, BD Biosciences) and test compound (50 μM MIP-1072, 50 μM DCT, and 100 μM phenacetin) were added to 0.1 M potassium phosphate buffer (pH 7.4) in order to monitor the catastrophic degradation of the test compounds. The mixture was incubated at 37° C. and at the indicated time (0, 15, 60 min) the reaction was stopped by the addition of an equal volume of ice cold methanol (500 μL). The resulting slurry was then centrifuged at 21,000×G for 10 min and the supernatant was collected and injected onto an Agilent LCMS model MSD SL using a 95:5 water:acetonitrile (with 0.1% formic acid) to 40:60 water:acetonitrile (with 0.1% formic acid) gradient and monitoring for the parent ion only in single ion mode. The results, shown in FIGS. 11A and 11B, are expressed as degradation of the parent ion with respect to the 0 min time point.
The stability of MIP-1072 was assessed using rat liver microsomes. MIP-1072 (50 μM) and Phenacetin (100 μM) were incubated with rat liver microsomes at 37° C. for the indicated time. Phenacetin was used as a control substance that is known to be metabolized. MIP-1072 was not degraded by the rat liver microsomes during the incubation period. […]

[6] = tested on: LNCaP (PSMA positive) tumors; test: Tissue biodistribution of I-131 MIP 1072 in xenograft tumored mice, LNCaP tumors; assay type: in vivo; settings: I-131-labeled
Description: (§3) The lead compound, MIP 1072, was I-131-labeled for tissue distribution studies in mice with both LNCaP (PSMA positive) and PC3 (PSMA negative) tumors implanted. The compound was radiolabeled by the route shown below.
(§4) A graph depicting the mice distribution is shown below (FIG. 12).

[7] = tested on: PC3 (PSMA negative) tumors; test: Tissue biodistribution of I-131 MIP 1072 in xenograft tumored mice, PC3 tumors; assay type: in vivo; settings: I-131-labeled
Description: as §3, §4

SMILES | internalization in LNCaP cells (LnCap cells) | tumor and kidney uptake after pretreatment with PMPA ([1]; 50 mg/kg PMPA 5 minutes prior to injection, 1 hour post injection) | localization to PSMA expressing LNCaP tumors ([1]; 1 hour post injection) | peak uptake in the LNCaP xenograft ([1]; at 1 hours post injection, tail vein bolus) | localization to PC3 tumors [2] | IC50 (PSMA on LNCaP cells [3]) | Bmax (PSMA on LNCaP cells [4]; 4° C.) | Kd (PSMA on LNCaP cells [4]; 4° C., nonlinear regression) | Bmax (PSMA on LNCaP cells [4]; 37° C.) | Kd (PSMA on LNCaP cells [4]; 37° C.) | time at which binding to PSMA reached equilibrium (LnCap cells; 4° C., LNCaP cells) | degradation of the parent by rat liver microsomes [5] | uptake in LNCaP (PSMA positive) tumors [6] | activity in PC3 (PSMA negative) tumors [7]
O=C(O)CC[C@H](NC(=O)N[C@@H](CCCCNCc1ccc([123I])cc1)C(=O)O)C(=O)O [123I-MIP-1072] | internalized at 37 °C but not at 4 °C | blocked | localization to PSMA expressing LNCaP tumors | 17±6 % ID/g | not PC3 tumors |  |  |  |  |  |  |  |  | 
O=C(O)CC[C@H](NC(=O)N[C@@H](CCCCNCc1ccc(I)cc1)C(=O)O)C(=O)O [MIP 1072, (S, S)-2-{3-[1-Carboxy-5-(4-iodo-benzylamino)-pentyl]-ureido}-pentanedioic] | internalized |  |  |  |  | < 50 nM | 1,490 fmoles/10^6 cells | 4.8 nM | 4,400 fmol/10^6 cells | 8.1 nM | 15 min | not degraded | significant uptake | very little activity
CCOc1ccc(NC(C)=O)cc1 [phenacetin, reference compound] |  |  |  |  |  |  |  |  |  |  |  | 22% |  | 
